# Measured values: patent US20250277784A1, “EXPRESSION SYSTEMS FOR THE ALPHA6BETA4 NICOTINIC ACETYLCHOLINE RECEPTOR AND METHODS OF USE THEREOF” (Janssen Pharmaceutica NV, priority 2021, published 2025)
# Read-outs that look alike come from different tables or passages of the source.
# Key:
# [1] = biological target: T1, Human α6β4 nAChR (Homo sapiens, UniProt P30926+Q15825); assay: FLIPR assay, agonist-evoked calcium flux in recombinant cells co-transfected with BARP, SULT2B1 and CHAT; format: cell-based
# T1 construct: expressed in transfected cells
# Method: In one embodiment, FLIPR assay is used to identify agonists of α6β4 nAChR mediated calcium flux. In this assay, the recombinant cells are incubated with a calcium sensitive dye (such as Ca5), exposed to a test compound, and calcium flux is imaged by FLIPR^TETRA.
# • Prepare a cell suspension of 1×10^6 cells per mL by centrifuging cells and resuspending in fresh, prewarmed media; • With 1900 mL of cells shaking, prepare the following transfection mix in 50 ml of OptiPro SFM Medium; • Add 2.5 mL FreeStyle MAX reagent to 47.5 mL of OptiPro SFM to an empty 50 ml tube; • In a second 50 ml tube, add 2.5 mg total DNA (α6, β4, BARP, CHAT, and SULT2B1 at a ratio of 1:1:2:1:1) in OptiPro SFM to a final volume of 50 ml and vortex gently; • Transfer the diluted DNA to the FreeStyle MAX reagent and gently mix the solution immediately and incubate for 10 minutes at room temperature; • Transfer the 100 ml FreeStyle MAX/DNA transfection mix to the cells and homogenize the culture; • Incubate 1 hour at 37° C. with 8% CO2; • Pour cells into sterile 500 mL tubes; • Spin at 1000 rpm for 7 minutes; • Remove supernatant; and • Resuspend Cells in Plating Media.
# • Ethanol vials to decontaminate; • Pour cells into 50 ml conical tube; • Slowly add 10 ml warmed plating media drop wise; • Pipet up and down gently a few times to dislodge pellet if it exists; • Spin at 1000 RPM for 7 min, aspirate supernatant, and resuspend in 25 ml plating; • Seed 35,000 cells/well in 35 μL (1.0×10^6 cells/mL); and • Incubate plates for 24 hours at 37° C. Then transfer the plate to 30° C. with 5% CO2 in a humidified atmosphere for 24-48 hours.
# • Wash plate with plate washer (4 washes×100 μL/wash) using compound dilution buffer, leaving 25 µL in each well; • Add 25 μL of 2× Ca6 dye to each well; • Incubate at room temperature for 1 hour; • Wash plate with plate washer (4 washes×100 μL/wash) using compound dilution buffer, leaving 50 µL in each well; • Transfer plates to FLIPR for compound addition. Concentration Response Curves for Agonist-Evoked Activity of α6β4 nAChR
# Human α6 and β4 subunits of α6β4 nAChR were co-transfected with BARP, SULT2B1, and CHAT in HEK293T cells and incubated at 30° C. for 24-48 hours. The transfected cells were incubated for one hour at room temperature with Ca5 dye followed by stimulating with agonists for 3.5 minutes. Agonist-evoked calcium flux was measured using a FLIPR^TETRA imager and final FLIPR signals were averaged and plotted (FIG. 1).
# [2] = biological target: T1, Human α6β4 nAChR; assay: FLIPR assay, antagonist on nicotine-evoked calcium flux (two-addition protocol); format: cell-based; settings: HEK293T cells, 1st addition test compound 3 min, 2nd addition nicotine (EC80, 15 μM) 3.5 min, FIG. 2
# Method: In one embodiment, FLIPR assay is used to identify antagonists of nicotine-evoked α6β4 nAChR mediated calcium flux. In this assay, the recombinant cells are incubated with a calcium sensitive dye (such as Ca5). Using a double addition protocol, the recombinant cells are exposed to test compounds during the first duration, and to nicotine (e.g., at EC80 (15 μm)) during the second duration. Thereafter, the calcium flux is imaged by FLIPR^TETRA. […]
# Human α6 and β4 subunits of α6β4 nAChR were co-transfected with BARP, SULT2B1, and CHAT in HEK293T cells and incubated at 30° C. for 24-48 hour. […] Nicotine-evoked calcium flux was then measured using a FLIPR^TETRA imager and the final FLIPR signals were averaged and plotted (FIG. 2).
# [3] = tested on: patients with diabetic peripheral neuropathic pain; settings: phase 2 clinical trial; cited from earlier work
# [4] = tested on: α6 knockout mice; settings: following both inflammatory and neuropathic injuries; cited from earlier work
# [5] = HEK293T cells, incubated at 30° C. for 24-48 hours, Ca5 dye, agonist stimulation 3.5 minutes, FIG. 1
# T1 sequence (Q15825 26-494): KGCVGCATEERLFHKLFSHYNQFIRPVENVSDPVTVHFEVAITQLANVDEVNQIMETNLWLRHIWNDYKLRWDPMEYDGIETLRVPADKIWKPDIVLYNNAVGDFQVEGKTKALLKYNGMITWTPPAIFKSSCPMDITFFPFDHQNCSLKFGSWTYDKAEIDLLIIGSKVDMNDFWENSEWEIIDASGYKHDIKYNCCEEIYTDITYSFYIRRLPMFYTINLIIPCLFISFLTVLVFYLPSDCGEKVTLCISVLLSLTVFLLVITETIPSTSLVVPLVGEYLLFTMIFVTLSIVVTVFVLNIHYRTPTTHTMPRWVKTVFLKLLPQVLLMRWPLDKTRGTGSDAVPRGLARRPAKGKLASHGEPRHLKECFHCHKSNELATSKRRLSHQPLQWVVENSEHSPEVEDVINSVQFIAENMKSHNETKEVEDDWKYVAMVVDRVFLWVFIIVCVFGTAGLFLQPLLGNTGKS
# T1 sequence (P30926 22-498): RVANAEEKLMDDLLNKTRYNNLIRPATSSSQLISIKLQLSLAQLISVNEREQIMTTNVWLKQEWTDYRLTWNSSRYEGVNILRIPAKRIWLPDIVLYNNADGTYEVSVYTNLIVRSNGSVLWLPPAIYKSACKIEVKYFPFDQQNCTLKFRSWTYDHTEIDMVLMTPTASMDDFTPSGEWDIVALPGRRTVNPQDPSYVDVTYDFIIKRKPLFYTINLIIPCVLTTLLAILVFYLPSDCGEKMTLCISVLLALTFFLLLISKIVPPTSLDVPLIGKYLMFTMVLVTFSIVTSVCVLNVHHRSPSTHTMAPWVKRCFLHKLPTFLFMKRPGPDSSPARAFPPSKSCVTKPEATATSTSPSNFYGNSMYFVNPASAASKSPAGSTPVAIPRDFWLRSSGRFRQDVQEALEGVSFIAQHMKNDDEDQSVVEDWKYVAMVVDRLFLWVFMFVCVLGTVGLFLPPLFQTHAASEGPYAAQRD
compound,measurement,setting,value
c1cncc(OC[C@@H]2CCN2)c1 [A-85380],Agonist-evoked calcium flux (FLIPR signal),[1]; [5],enhances calcium flux in a dose-dependent manner
Clc1ccc(C2CC3CCC2N3)cn1 (stereo not drawn) [epibatidine],Agonist-evoked calcium flux (FLIPR signal),[1]; [5],enhances calcium flux in a dose-dependent manner
"CCN1C[C@]2(COC(=O)c3ccccc3N3C(=O)C[C@H](C)C3=O)CC[C@H](OC)[C@@]34[C@@H]5C[C@H]6[C@H](OC)[C@@H]5[C@](O)(C[C@@H]6OC)[C@@](O)([C@@H](OC)[C@H]23)[C@@H]14 [MLA, methyllycaconitine]",Nicotine-evoked calcium flux (FLIPR signal),[2],decreases the nicotine-evoked calcium flux in a dose-dependent manner
c1cnc2cc3c(cc2n1)[C@@H]1CNC[C@H]3C1 [varenicline],Agonist-evoked calcium flux (FLIPR signal),[1]; [5],enhances calcium flux in a dose-dependent manner
Clc1ccc(OC[C@H]2CCN2)cn1 [ABT-594],Agonist-evoked calcium flux (FLIPR signal),[1]; [5],enhances calcium flux in a dose-dependent manner
same,Efficacy for diabetic neuropathy,[3],robust efficacy
same,Side effects,[3],unacceptable side effects
Clc1cc(N2C[C@@H]3CN[C@@H]3C2)cnc1Cl [ABT-894],Agonist-evoked calcium flux (FLIPR signal),[1]; [5],enhances calcium flux in a dose-dependent manner
CN1CCCC1c1cccnc1 (stereo not drawn) [nicotine],Analgesic effects,[4],absent
same,Agonist-evoked calcium flux (FLIPR signal),[1],enhances calcium flux in a dose-dependent manner
same,Nicotine EC80,[1],15 µM
O=c1cccc2n1C[C@@H]1CNC[C@H]2C1 [cytisine],Agonist-evoked calcium flux (FLIPR signal),[1],enhances calcium flux in a dose-dependent manner
